Columns and labels:
[1] = biological target: anti-β endorphin monoclonal antibody; settings: cited from earlier work
[2] = biological target: Mab 2 (monoclonal antibody to hGH); assay: Binding of Mab 2 to hGH and hGH phagemid particles (ELISA); settings: read-out: IC50 (concentration to give half-maximal binding to the Mab)
Procedure: (§1) After 2 hours at room temperature (rt), the plates were washed well and the indicated Mab (Cunningham et al. supra) was added at 1 μg/ml in buffer A for 2 hours at rt. Following washing, horseradish peroxidase conjugated goat anti-mouse IgG antibody was bound at rt for 1 hour. After a final wash, the peroxidase activity was assayed with the substrate, o-phenylenediamine.

[3] = biological target: Mab 5 (monoclonal antibody to hGH); assay: Binding of Mab 5 to hGH and hGH phagemid particles (ELISA); settings: read-out: IC50 (concentration to give half-maximal binding to the Mab)
Procedure: as §1

[4] = biological target: Mab 1 (monoclonal antibody to hGH); assay: Binding of Mab 1 to hGH and hGH phagemid particles (ELISA); settings: read-out: IC50 (concentration to give half-maximal binding to the Mab)
Procedure: as §1

[5] = biological target: Mab 3 (monoclonal antibody to hGH); assay: Binding of Mab 3 to hGH and hGH phagemid particles (ELISA); settings: read-out: IC50 (concentration to give half-maximal binding to the Mab)
Procedure: as §1

[6] = biological target: Mab 4 (monoclonal antibody to hGH); assay: Binding of Mab 4 to hGH and hGH phagemid particles (ELISA); settings: read-out: IC50 (concentration to give half-maximal binding to the Mab)
Procedure: as §1

[7] = biological target: Mab 8 (monoclonal antibody to hGH); assay: Binding of Mab 8 to hGH and hGH phagemid particles (ELISA); settings: read-out: IC50 (concentration to give half-maximal binding to the Mab)
Procedure: as §1

[8] = biological target: Mab 6 (monoclonal antibody to hGH); assay: Binding of Mab 6 to hGH and hGH phagemid particles (ELISA); settings: read-out: IC50 (concentration to give half-maximal binding to the Mab)
Procedure: as §1

[9] = biological target: Mab 7 (monoclonal antibody to hGH); assay: Binding of Mab 7 to hGH and hGH phagemid particles (ELISA); settings: read-out: IC50 (concentration to give half-maximal binding to the Mab)
Procedure: as §1

IC50 [2] [nM]	IC50 [3] [nM]	IC50 [4] [nM]	IC50 [5] [nM]	IC50 [6] [nM]	IC50 [7] [nM]	IC50 [8] [nM]	IC50 [9] [nM]	Substance	Kd [1] [nM]
–	–	–	–	–	–	–	–	β-endorphin peptide: parent β-endorphin peptide sequence recognised by the anti-β endorphin monoclonal antibody	~7
0.04	0.2	0.4	0.2	0.1	0.1	0.07	0.1	Human growth hormone [hGH]	–

Reference: patent US5688666A, “Growth hormone variants with altered binding properties” (Genentech, Inc., priority 1994, dated 1997)
